# According to US10538555B2, “Macrocyclic inhibitors of the PD-1/PD-L1 and CD80(B7-1)/PD-L1 protein/protein interactions” (BRISTOL-MYERS SQUIBB COMPANY, priority 2014, dated 2020):
# *1 amine or outer side, *2 acyl side, *3 side chain or, on linkers, in order; H or OH if unused. Where a SMILES comes first, the peptide text is derived from it. Bridges are numbered along the chain shown (N, C = ends). [ ]: non-standard residue; d: D form. ξ: configuration not given here. X11 = CCCC[C@@H](C(=O)C1C[C@H](O)C[C@@H]1C(=O)[*:2])N(C)[*:1]; Trp(1-CH2COOH) = N[C@@H](Cc1cn(CC(=O)O)c2ccccc12)C(=O)O; Phe(3,4,5-F3) = N[C@@H](Cc1cc(F)c(F)c(F)c1)C(=O)O; Phe(3,4-F2) = N[C@@H](Cc1ccc(F)c(F)c1)C(=O)O; NMePhe(4-F) = CN[C@@H](Cc1ccc(F)cc1)C(=O)O; Phe(4-F) = N[C@@H](Cc1ccc(F)cc1)C(=O)O; d(cisHyp) = O=C(O)[C@H]1C[C@@H](O)CN1; Hyp = O=C(O)[C@@H]1C[C@@H](O)CN1; NMeF = CN[C@@H](Cc1ccccc1)C(=O)O; dHyp = O=C(O)[C@H]1C[C@H](O)CN1; Cha = N[C@@H](CC1CCCCC1)C(=O)O; NMeNle = CCCC[C@H](NC)C(=O)O; ξY = NC(Cc1ccc(O)cc1)C(=O)O; Pip = O=C(O)[C@@H]1CCCCN1; dPip = O=C(O)[C@H]1CCCCN1; NMeA = CN[C@@H](C)C(=O)O; Orn = NCCC[C@H](N)C(=O)O; dNMeA = CN[C@H](C)C(=O)O; Dab = NCC[C@H](N)C(=O)O; Dap = NC[C@H](N)C(=O)O; ξC = NC(CS)C(=O)O; Sar = CNCC(=O)O
# Biological target: T1, Human PD-L1/PD-1 (Homo sapiens, UniProt Q9NZQ7)
# T1 construct: TVMV protease cleavage site (C); made in house; host or cells: HEK293T cells
# Test: HTRF Human PD-L1/PD-1 binding assay (PD-1-Ig/PD-L1-His)
# Details: PD-L1-His 10 nM, PD-1-Ig 20 nM; class symbol; read-out: HTRF Human PD-L1/PD-1 Binding Assay IC50 Range
# How it was run: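 HTRF competition using HEK293T-expressed human PD-1(25-167)-Ig at 20 nM and PD-L1(18-239)-His at 10 nM, compound incubated first with PD-L1 for 15 min, then with PD-1 for 15 min. Signal read as 665/620 nm ratio 30 min after adding Eu anti-Ig and APC anti-His antibodies.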
# T1 sequence (Q9NZQ7 with tags, fused parts or gaps): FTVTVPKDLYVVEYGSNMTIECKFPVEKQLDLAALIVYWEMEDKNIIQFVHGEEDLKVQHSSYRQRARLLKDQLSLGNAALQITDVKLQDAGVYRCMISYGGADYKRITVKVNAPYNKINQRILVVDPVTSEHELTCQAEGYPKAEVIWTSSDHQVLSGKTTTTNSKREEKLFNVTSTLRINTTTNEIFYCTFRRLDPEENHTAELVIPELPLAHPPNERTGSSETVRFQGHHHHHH
row,IC50 [nM],SMILES
1,10 to 99.9,"CCCC[C@H]1C(=O)N2CCC[C@@H]2C(=O)N[C@@H](CC(=O)O)C(=O)N[C@@H](C)C(=O)N(C)[C@@H](Cc2ccccc2)C(=O)N[C@@H](Cc2ccc(O)cc2)C(=O)N(C)CC(=O)N[C@@H](Cc2c[nH]c3ccccc23)C(=O)N[C@@H](Cc2ccc(O)cc2)C(=O)N[C@@H](CC(C)C)C(=O)N[C@H](C(=O)NCC(N)=O)CSCC(=O)N[C@@H](Cc2cc(F)c(F)c(F)c2)C(=O)N(C)[C@@H](Cc2ccccc2)C(=O)N1C [Example 10053] ({CH2CO}-[Phe(3,4,5-F3)][NMeF][NMeNle][dP]DA[NMeF]Y[Sar]WYLCG-NH2; thioether N-13)"
2,10 to 99.9,CCCC[C@H]1C(=O)N(C)[C@@H](CCCC)C(=O)N[C@@H](CCCNC(=N)N)C(=O)NC(C(=O)NCC(N)=O)CSCC(=O)N[C@@H](Cc2ccc(O)cc2)C(=O)N(C)[C@@H](C)C(=O)N[C@@H](CC(N)=O)C(=O)N2CCC[C@H]2C(=O)N[C@@H](CO)C(=O)N[C@@H](CO)C(=O)N2C[C@H](O)C[C@H]2C(=O)N[C@@H](Cc2c[nH]c3ccccc23)C(=O)N[C@@H](CO)C(=O)N[C@@H](Cc2c[nH]c3ccccc23)C(=O)N1C (stereo partly drawn) [Example 10018] ({CH2CO}-Y[NMeA]NPSS[Hyp]WSW[NMeNle][NMeNle]R[ξC]G-NH2; thioether N-14)
3,10 to 99.9,"CCCC[C@H]1C(=O)C2C[C@H](O)C[C@@H]2C(=O)N[C@@H](CC(=O)O)C(=O)N[C@@H](C(C)C)C(=O)N(C)[C@@H](Cc2ccccc2)C(=O)N[C@@H](CCC(=O)O)C(=O)N2CCCC[C@@H]2C(=O)N[C@@H](Cc2c[nH]c3ccccc23)C(=O)N[C@@H](Cc2ccc(O)cc2)C(=O)N[C@@H](CCCN)C(=O)N[C@H](C(=O)NCC(N)=O)CSCC(=O)N[C@@H](Cc2cc(F)c(F)c(F)c2)C(=O)N(C)[C@@H](Cc2ccccc2)C(=O)N1C (stereo partly drawn) [Example 3642] ({CH2CO}-[Phe(3,4,5-F3)][NMeF][X11]DV[NMeF]E[dPip]WY[Orn]CG-NH2; thioether N-12)"
4,1 to 9.9,CCCC[C@H]1C(=O)N(C)[C@@H](CCCC)C(=O)N[C@@H](CC(=O)O)C(=O)N[C@H](C(=O)NCC(N)=O)CSCC(=O)N[C@@H](Cc2ccc(O)cc2)C(=O)N2CCCC[C@H]2C(=O)N[C@@H](CC(=O)O)C(=O)N2CCC[C@H]2C(=O)N[C@@H](Cc2cnc[nH]2)C(=O)N[C@@H](CCCCN)C(=O)N2C[C@H](O)C[C@H]2C(=O)N[C@@H](Cc2c[nH]c3ccccc23)C(=O)N[C@@H](CCCCN)C(=O)N[C@@H](Cc2c[nH]c3ccccc23)C(=O)N1C [Example 1259] ({CH2CO}-Y[Pip]DPHK[Hyp]WKW[NMeNle][NMeNle]DCG-NH2; thioether N-14)
5,1 to 9.9,"CCCC[C@H]1C(=O)N2C[C@H](O)C[C@@H]2C(=O)N[C@@H](CC(=O)O)C(=O)N[C@@H](C(C)C)C(=O)N(C)[C@@H](Cc2ccccc2)C(=O)N[C@@H](CC(N)=O)C(=O)N2C[C@H](O)C[C@@H]2C(=O)N[C@@H](Cc2c[nH]c3ccccc23)C(=O)NC(Cc2ccc(O)cc2)C(=O)N[C@@H](CCC(=O)O)C(=O)N[C@H](C(=O)NCC(N)=O)CSCC(=O)N[C@@H](Cc2ccc(F)c(F)c2)C(=O)N(C)[C@@H](Cc2ccccc2)C(=O)N1C (stereo partly drawn) [Example 9317] ({CH2CO}-[Phe(3,4-F2)][NMeF][NMeNle][d(cisHyp)]DV[NMeF]N[d(cisHyp)]W[ξY]ECG-NH2; thioether N-13)"
6,1 to 9.9,"CCCC[C@H]1C(=O)N2CCC[C@@H]2C(=O)N[C@@H](CO)C(=O)N[C@@H](C(C)C)C(=O)N(C)[C@@H](Cc2ccccc2)C(=O)N[C@@H](CC(=O)O)C(=O)N2CCCC[C@@H]2C(=O)N[C@@H](Cc2c[nH]c3ccccc23)C(=O)N[C@@H](Cc2ccc(O)cc2)C(=O)N[C@@H](CC(C)C)C(=O)N[C@H](C(=O)NCC(N)=O)CSCC(=O)N[C@@H](Cc2cc(F)c(F)c(F)c2)C(=O)N(C)[C@@H](Cc2ccc(F)cc2)C(=O)N1C [Example 10583] ({CH2CO}-[Phe(3,4,5-F3)][NMePhe(4-F)][NMeNle][dP]SV[NMeF]D[dPip]WYLCG-NH2; thioether N-13)"
7,1 to 9.9,CCCC[C@H]1C(=O)N(C)[C@@H](CCCC)C(=O)N[C@@H](CC(C)C)C(=O)NC(C(=O)NCC(N)=O)CSCC(=O)N[C@@H](Cc2ccc(O)cc2)C(=O)N(C)[C@@H](C)C(=O)N[C@@H](CC(N)=O)C(=O)N2CCC[C@H]2C(=O)N[C@@H](CC(N)=O)C(=O)N[C@@H](CC(C)C)C(=O)N2CCC[C@H]2C(=O)N[C@@H](Cc2c[nH]c3ccccc23)C(=O)N[C@@H](CO)C(=O)N[C@@H](Cc2c[nH]c3ccccc23)C(=O)N1C (stereo partly drawn) [Example 9159] ({CH2CO}-Y[NMeA]NPNLPWSW[NMeNle][NMeNle]L[ξC]G-NH2; thioether N-14)
8,1 to 9.9,CCCC[C@H]1C(=O)N(C)[C@@H](CCCC)C(=O)N[C@@H](CCC(=O)O)C(=O)N[C@H](C(=O)NCC(N)=O)CSCC(=O)N[C@@H](Cc2ccc(O)cc2)C(=O)N2CCCC[C@H]2C(=O)N[C@@H](CC(N)=O)C(=O)N2CCC[C@H]2C(=O)N[C@@H](CO)C(=O)N[C@@H](CC(C)C)C(=O)N2C[C@H](O)C[C@H]2C(=O)N[C@@H](Cc2c[nH]c3ccccc23)C(=O)N[C@@H](CCN)C(=O)N[C@@H](Cc2cn(CC(=O)O)c3ccccc23)C(=O)N1C [Example 1305] ({CH2CO}-Y[Pip]NPSL[Hyp]W[Dab][Trp(1-CH2COOH)][NMeNle][NMeNle]ECG-NH2; thioether N-14)
9,1 to 9.9,CCCC[C@H]1C(=O)N(C)[C@@H](CCCC)C(=O)N[C@@H](CCC(=O)O)C(=O)N[C@H](C(=O)NCC(N)=O)CSCC(=O)N[C@@H](Cc2ccc(O)cc2)C(=O)N(C)[C@@H](C)C(=O)N[C@@H](CC(N)=O)C(=O)N2CCC[C@H]2C(=O)N[C@@H](CO)C(=O)N[C@@H](CC(C)C)C(=O)N2C[C@H](O)C[C@H]2C(=O)N[C@@H](Cc2c[nH]c3ccccc23)C(=O)N[C@@H](CCN)C(=O)N[C@@H](Cc2c[nH]c3ccccc23)C(=O)N1C [Example 5247] ({CH2CO}-Y[NMeA]NPSL[Hyp]W[Dab]W[NMeNle][NMeNle]ECG-NH2; thioether N-14)
10,100 to 990,CCCC[C@H]1C(=O)N[C@@H](CCC(N)=O)C(=O)N2CCC[C@@H]2C(=O)N[C@@H](Cc2c[nH]c3ccccc23)C(=O)N[C@@H](Cc2ccc(O)cc2)C(=O)N[C@@H](CCCN)C(=O)N[C@H](C(=O)NCC(N)=O)CSCC(=O)N[C@@H](Cc2ccc(F)cc2)C(=O)N(C)[C@@H](Cc2ccccc2)C(=O)N(C)[C@@H](CCCC)C(=O)N2CCC[C@@H]2C(=O)N[C@@H](CC(=O)O)C(=O)N[C@@H](C(C)C)C(=O)N1C [Example 9217] ({CH2CO}-[Phe(4-F)][NMeF][NMeNle][dP]DV[NMeNle]Q[dP]WY[Orn]CG-NH2; thioether N-13)
11,1 to 9.9,"CCCC[C@H]1C(=O)N2C[C@H](O)C[C@@H]2C(=O)N[C@@H](CC(=O)O)C(=O)N[C@@H](C(C)C)C(=O)N(C)[C@@H](Cc2ccccc2)C(=O)N[C@@H](Cc2ccc(O)cc2)C(=O)N2C[C@H](O)C[C@@H]2C(=O)N[C@@H](Cc2c[nH]c3ccccc23)C(=O)N[C@@H](Cc2ccc(O)cc2)C(=O)N[C@@H](CCCN)C(=O)N[C@H](C(=O)NCC(N)=O)CSCC(=O)N[C@@H](Cc2cc(F)c(F)c(F)c2)C(=O)N(C)[C@@H](Cc2ccccc2)C(=O)N1C [Example 9323] ({CH2CO}-[Phe(3,4,5-F3)][NMeF][NMeNle][d(cisHyp)]DV[NMeF]Y[d(cisHyp)]WY[Orn]CG-NH2; thioether N-13)"
12,100 to 990,CCCC[C@H]1C(=O)N(C)CC(=O)N[C@@H](CC(=O)O)C(=O)N[C@@H](C(C)C)C(=O)N(C)[C@@H](Cc2ccccc2)C(=O)N[C@@H](Cc2ccc(O)cc2)C(=O)N(C)CC(=O)N[C@@H](Cc2c[nH]c3ccccc23)C(=O)N[C@@H](Cc2ccc(O)cc2)C(=O)N[C@@H](CC(C)C)C(=O)N[C@H](C(=O)NCC(N)=O)CSCC(=O)N[C@@H](CC2CCCCC2)C(=O)N(C)[C@@H](Cc2ccccc2)C(=O)N1C [Example 3238] ({CH2CO}-[Cha][NMeF][NMeNle][Sar]DV[NMeF]Y[Sar]WYLCG-NH2; thioether N-13)
13,1 to 9.9,CCCC[C@H]1C(=O)N(C)[C@@H](CCCC)C(=O)N[C@@H](CCC(=O)O)C(=O)N[C@H](C(=O)NCC(N)=O)CSCC(=O)N[C@@H](Cc2ccc(O)cc2)C(=O)N2CCCC[C@H]2C(=O)N[C@@H](CC(=O)O)C(=O)N2CCC[C@H]2C(=O)N[C@@H](CN)C(=O)N[C@@H](CCC(=O)O)C(=O)N2C[C@H](O)C[C@H]2C(=O)N[C@@H](Cc2c[nH]c3ccccc23)C(=O)N[C@@H](CO)C(=O)N[C@@H](Cc2c[nH]c3ccccc23)C(=O)N1C [Example 1521] ({CH2CO}-Y[Pip]DP[Dap]E[Hyp]WSW[NMeNle][NMeNle]ECG-NH2; thioether N-14)
14,1 to 9.9,"CC(C)[C@@H]1NC(=O)[C@H](CC(=O)O)NC(=O)[C@@H](C)N(C)C(=O)[C@H](C)N(C)C(=O)[C@H](Cc2ccccc2)N(C)C(=O)[C@H](Cc2cc(F)c(F)c(F)c2)NC(=O)CSC[C@@H](C(=O)NCC(N)=O)NC(=O)[C@H](CCCN)NC(=O)[C@H](Cc2ccc(O)cc2)NC(=O)[C@H](Cc2c[nH]c3ccccc23)NC(=O)[C@@H](C)N(C)C(=O)[C@H](Cc2ccc(O)cc2)NC(=O)[C@H](Cc2ccccc2)N(C)C1=O [Example 9193] ({CH2CO}-[Phe(3,4,5-F3)][NMeF][NMeA][dNMeA]DV[NMeF]Y[dNMeA]WY[Orn]CG-NH2; thioether N-13)"
15,1 to 9.9,CCCC[C@H]1C(=O)N(C)[C@@H](CCCC)C(=O)N[C@@H](CC(C)C)C(=O)N[C@H](C(=O)NCC(N)=O)CSCC(=O)N[C@@H](Cc2ccc(OC)cc2)C(=O)N(C)[C@@H](C)C(=O)N[C@@H](CC(N)=O)C(=O)N2CCC[C@@H]2C(=O)N[C@@H](CN)C(=O)N[C@@H](C(C)C)C(=O)N2C[C@@H](O)C[C@@H]2C(=O)N[C@@H](Cc2c[nH]c3ccccc23)C(=O)N[C@@H](CCN)C(=O)N[C@@H](Cc2cn(CC(=O)O)c3ccccc23)C(=O)N1C [Example 7151] ({CH2CO}-Y(Me)[NMeA]N[dP][Dap]V[dHyp]W[Dab][Trp(1-CH2COOH)][NMeNle][NMeNle]LCG-NH2; thioether N-14)
